In US10058563B2, “System and method for diagnosis and treatment” (Pop Test Oncology Limited Liability Company, priority 2011, dated 2018):
Values after ≈ are worked out from the molar mass of the structure shown. Like-named read-outs stand apart in the source and are kept apart here. One block for each compound: values may come before it.

Key:
[1] = system: TNBC (Triple Negative Breast Cancer; MDA-MB-231) cells; test: Xenografted breast tumor growth, ORG 34517 plus Taxol (Example 1); format: in vivo, CB-17 SCID mice; conditions: for relative tumor growth: N=3, control Veh/Veh 379%
Description: This study is performed to obtain evidence for enhancement of chemotherapy sensitivity of GR+/ER−/PR−/Her2-neu− breast cancer cells by blocking stress-mediated cell survival pathways with a GR antagonist. In the present pilot study, the GR antagonist ORG 34517, is investigated, in one dose, in combination with the chemotherapeutic agent Taxol. Both the Taxol and ORG 34517 doses are selected based on previous experiments.
Materials and Methods—1×107 TNBC (Triple Negative Breast Cancer; MDA-MB-231) cells in 50 ul of PBS (phosphate buffered saline) are injected into the mammary fat pad of 4-5 week old CB-17 SCID mice (Taconic Labs). The mice are allowed to form xenografted breast tumors of approximately 200 mm3 volume. When tumors reach an average of 200 mm3 (Week “0”), 15 mice are separated into the 3 treatment groups 1) vehicle, 2) paclitaxel (Taxol), 3) ORG 34517+ paclitaxel. The used paclitaxel dose is 10 mg/kg/day dissolved in Ethanol/Sesame Oil; ORG 34517 is administered in the maximum soluble dose of 20.5 mg/kg/day dissolved in Ethanol/Castor Oil. The mice receive intraperitoneal injections (200 ul) of drugs for 5 consecutive days (day 1-5). Tumors are measured three times per week. Tumor size is both expressed as absolute volume and as relative growth in comparison to baseline (day 0).
Results—Treatment of the animals is started when the tumor has a volume of at least 100 mm3. The total experimental group consisted of 15 animals. In 6 animals the tumor growth was considered not sufficient. […] In the control situation the tumor grows within 13 days with about 800 mm3 (see raw data). To correct for baseline differences, for each animal the relative tumor growth is calculated. Relative growth is defined as (tumor size day x−tumor size day 0)/tumor size day 0. Group averages for the relative tumor growth are depicted in FIG. 1. In the control condition (VehlVeh) the relative growth is 379%. […] A further reduction of the growth is induced by the addition of ORG 34517 (517/Taxo). The relative growth of this latter group is 100%.
A repeated measures ANOVA did reveal a significant time-effect (F5,36)=2.73; p=0.035), a significant treatment effect (F(2,36)=26.86; p=0.000) and a significant interaction (F(10,36)=2.36; p=0.029). […] This statistical analysis should be considered explorative because of the pilot nature of the study.

[2] = Solubility in different solvents; format: physicochemical
Description: The solubility of (11β,17β)-11-(1,3-benzodioxol-5-yl)-17-hydroxy-17-(1-propynyl)estra-4,9-dien-3-one is determined in different solvents. These solutions can be of use for clinical treatment with the advantages as mentioned above.

glucocorticoid receptor = molecular target: T1, glucocorticoid receptor (Homo sapiens, UniProt P04150); conditions: disclosed in U.S. Pat. No. 6,011,025; cited from earlier work
T1 sequence (P04150 1-777): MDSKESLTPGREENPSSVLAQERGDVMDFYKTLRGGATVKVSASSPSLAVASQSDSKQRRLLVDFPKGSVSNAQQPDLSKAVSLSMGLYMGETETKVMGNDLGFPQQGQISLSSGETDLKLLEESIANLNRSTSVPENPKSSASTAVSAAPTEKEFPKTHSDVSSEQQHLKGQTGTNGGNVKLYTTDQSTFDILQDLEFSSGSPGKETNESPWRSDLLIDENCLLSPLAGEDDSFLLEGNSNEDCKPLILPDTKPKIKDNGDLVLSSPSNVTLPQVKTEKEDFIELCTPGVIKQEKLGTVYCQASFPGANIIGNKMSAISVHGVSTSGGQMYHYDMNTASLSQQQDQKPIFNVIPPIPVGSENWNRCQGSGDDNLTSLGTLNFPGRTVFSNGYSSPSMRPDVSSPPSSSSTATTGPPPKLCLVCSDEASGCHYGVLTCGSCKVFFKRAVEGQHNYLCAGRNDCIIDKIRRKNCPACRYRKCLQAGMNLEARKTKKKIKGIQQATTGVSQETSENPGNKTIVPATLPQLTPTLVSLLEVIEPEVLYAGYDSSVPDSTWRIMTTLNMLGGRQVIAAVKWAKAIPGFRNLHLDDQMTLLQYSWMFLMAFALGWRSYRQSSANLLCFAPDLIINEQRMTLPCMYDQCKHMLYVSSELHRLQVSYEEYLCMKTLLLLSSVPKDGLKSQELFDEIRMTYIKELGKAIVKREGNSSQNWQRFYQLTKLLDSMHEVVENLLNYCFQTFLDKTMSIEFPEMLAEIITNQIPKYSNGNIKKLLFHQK

[3] = disclosed in U.S. Pat. No. 6,011,025; cited from earlier work
[4] = all phase I and phase II clinical trials performed with the compound; cited from earlier work
[5] = system: ER-GR+ human breast cancer cells; test: Tumor volume in mice implanted with ER-GR+ breast cancer cells (Example 2); format: in vivo; conditions: i.p. vehicle alone vs Paclitaxel alone vs Paclitaxel and ORG 34517; 3 mice per group
Source text: (§1) As tumor volume in each mouse approached the test threshold of 200 mm3, the mice were randomized to receive intraperitoneal injections of vehicle alone, chemotherapy (Paclitaxel) alone, and chemotherapy and ORG 34517. Each group contained 3 mice.
as §1, with “Mice were implanted with cultured ER-GR+ human breast cancer cells. As” for “As”

[6] = Behaviour in conventional dosage forms (capsule or tablet); format: in vivo; conditions: like a capsule or a tablet
Source text: Another dosage form than a conventional tablet or capsule may be able to circumvent these issues.

[7] = system: mineralocorticoid, progesterone, estrogen and androgen receptors; conditions: such as those for estrogen and progesterone; cited from earlier work

solubility ([2]; Arachis oil): 2.46 mg/g
solubility ([2]; Benzylalcohol): 390 mg/g
solubility ([2]; Castor oil): 7.38 mg/g
solubility ([2]; Castor oil:benzylbenzoate (90:10)): 15.0 mg/g
solubility ([2]; Castor oil:propylene glycol laurate (0.55:0.45; v:v)): 9.4 mg/g
solubility ([2]; Corn oil): 2.58 mg/g
solubility ([2]; Cremophor EL): 23 mg/g
solubility ([2]; Gelicure 44/14, oil or lipid, read-out: Solubility): 100000 µg/mL (≈ 232000 µM)
solubility ([2]; Glucofurol:water (50:50), aqueous with cosolvent or surfactant or cyclodextrin, read-out: Solubility): 700 µg/mL (≈ 1630 µM)
solubility ([2]; Glycoferol, organic solvent or mixture, read-out: Solubility): 118000 µg/mL (≈ 274000 µM)
solubility ([2]; HPβCD, 10% in water, aqueous with cosolvent or surfactant or cyclodextrin, read-out: Solubility): 207 µg/mL (≈ 481 µM)
solubility ([2]; HPβCD, 20% in water, aqueous with cosolvent or surfactant or cyclodextrin, read-out: Solubility): 395 µg/mL (≈ 917 µM)
solubility ([2]; HPβCD, 40% in water, aqueous with cosolvent or surfactant or cyclodextrin, read-out: Solubility): 800 µg/mL (≈ 1860 µM)
solubility ([2]; Medium Chain monoglyceride/glycerol monocaprylate): 28 mg/g
solubility ([2]; Miglyol 812): 4.5 mg/g
solubility ([2]; Mulgofen:water (5:95), aqueous with cosolvent or surfactant or cyclodextrin, read-out: Solubility): 2000 µg/mL (≈ 4650 µM)
solubility ([2]; Olive oil): 2.26 mg/g
solubility ([2]; PEG 400, organic solvent or mixture, read-out: Solubility): 34400 µg/mL (≈ 79900 µM)
solubility ([2]; PEG 400:water (60:40), aqueous with cosolvent or surfactant or cyclodextrin, read-out: Solubility): 0.6 µg/mL (≈ 1.39 µM)
solubility ([2]; PEG 1500, organic solvent or mixture, read-out: Solubility): 37000 µg/mL (≈ 85900 µM)
solubility ([2]; Polysorbate in water (0.5%)): <LOD
solubility ([2]; Soy oil): 2.70 mg/g
solubility ([2]; Span 80): 7 mg/g
solubility ([2]; TPGS:PEG 400:propyleneglycol (12:17:55), organic solvent or mixture, read-out: Solubility): 700 µg/mL (≈ 1630 µM)
solubility ([2]; TPGS:PEG 400:propyleneglycol (20:60:5), organic solvent or mixture, read-out: Solubility): 900 µg/mL (≈ 2090 µM)
solubility ([2]; acetone, organic solvent or mixture, read-out: Solubility): > 10000 µg/mL
solubility ([2]; acetonitrile, organic solvent or mixture, read-out: Solubility): > 10000 µg/mL
solubility ([2]; aqueous with cosolvent or surfactant or cyclodextrin, TPGS:d-Alpha Tocopheryl Polyethylene Glycol 1000 Succinate (20%, as delivered), read-out: Solubility): 1100 µg/mL (≈ 2550 µM)
solubility ([2]; dimethylsulfoxide, organic solvent or mixture, read-out: Solubility): > 100000 µg/mL
solubility ([2]; dog bile:phosphate buffer (1:1), plasma or biological fluid, Dog bile:phosphate buffer (pH = 6.5) (1:1), read-out: Solubility): ~80 µg/mL (≈ 186 µM)
solubility ([2]; ethanol, organic solvent or mixture, read-out: Solubility): > 10000 µg/mL
solubility ([2]; ethanol:PEG 400:propylene glycol (10:50:40), organic solvent or mixture, read-out: Solubility): 28600 µg/mL (≈ 66400 µM)
solubility ([2]; ethanol:PEG 400:propylene glycol:water (10:40:40:10), aqueous with cosolvent or surfactant or cyclodextrin, read-out: Solubility): 14000 µg/mL (≈ 32500 µM)
solubility ([2]; methanol, organic solvent or mixture, read-out: Solubility): > 10000 µg/mL
solubility ([2]; propylene glycol, organic solvent or mixture, read-out: Solubility): 8900 µg/mL (≈ 20700 µM)
solubility ([2]; water with sodium lauryl sulphate 0.5% w/v, aqueous with cosolvent or surfactant or cyclodextrin, Water-Sodium lauryl sulphate (0.5% w/v), read-out: Solubility): 240 µg/mL (≈ 557 µM)
solubility ([2]; water with sodium lauryl sulphate 1.0% w/v, aqueous with cosolvent or surfactant or cyclodextrin, Water-Sodium lauryl sulphate (1.0% w/v), read-out: Solubility): 377 µg/mL (≈ 876 µM)
solubility ([2]; water, read-out: Solubility): 3 µg/mL (≈ 6.97 µM)
SMILES: CC#C[C@]1(O)CC[C@H]2[C@@H]3CCC4=CC(=O)CCC4=C3[C@@H](c3ccc4c(c3)OCO4)C[C@@]21C [ORG 34517, (11β,17β)-11-(1,3-benzodioxol-5-yl)-17-hydroxy-17-(1-propynyl) estra-4,9-dien-3-one]
tumor growth in comparison to Veh/Taxo treatment ([1]; 517/Taxo, all three animals, individual scores): decreased tumor growth
relative tumor growth ([1]; ORG 34517 20.5 mg/kg/day + Taxol 10 mg/kg/day i.p. day 1-5 (517/Taxo)): 100%
animals with tumor shrinkage during treatment ([1]; ORG 34517 20.5 mg/kg/day + Taxol 10 mg/kg/day i.p. for 5 days): 2 out of 3
effect on the chemotherapeutic effect of Taxol ([1]; ORG 34517 i.p. 20.5 mg/kg/day for 5 days): potentiated the chemotherapeutic effect of Taxol
glucocorticoid receptor binding affinity (glucocorticoid receptor): high
androgenic and progestagenic activities [3]: low
significant toxicities and side effects [4]: none were identified
attained tumor volume [5]: significant differences in attained tumor volume
exposure behaviour [6]: low exposure, high dose variability, large food effect and non-dose linearity
cross-binding to other related steroidal hormone receptors [7]: without significant cross-binding

SMILES: CC(=O)O[C@H]1C(=O)[C@@]2(C)[C@H]([C@H](OC(=O)c3ccccc3)[C@]3(O)C[C@H](OC(=O)[C@H](O)[C@@H](NC(=O)c4ccccc4)c4ccccc4)C(C)=C1C3(C)C)[C@]1(OC(C)=O)CO[C@@H]1C[C@@H]2O [Taxol, paclitaxel, reference compound]
relative tumor growth ([1]; Taxol 10 mg/kg/day i.p. day 1-5 (Veh/Taxo)): 183%
effect on tumor growth ([1]; Taxol injections alone): reduced the tumor growth
